Measured values from patent US9464064B2, “HCV helicase inhibitors and methods of use thereof” (University of Kansas, priority 2011, dated 2016).

Target: T1, HCV NS3 helicase NS3h_1b(con1) (Hepatitis C virus genotype 1b, UniProt Q9WMX2)
T1 construct: truncated C-terminally His-tagged NS3 proteins lacking the N-terminal protease, called NS3h; His-tag (C); made in house
Assay: MBHA screen of NCI mechanistic set library at 20 μM (percent inhibition, compound interference)
Type: biochemical
Conditions: compounds at 20 μM; for Inh. (%) (Inhibition): calculated from Equation 1
Outline: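 Molecular beacon-based DNA unwinding assay; compounds screened at 20 μM in triplicate, with DMSO-only negative and 500 nM dT20 positive controls. Fluorescence (ex 643/em 670 nm) was read before and 30 min after adding ATP to 1 mM. Percent inhibition came from the change relative to DMSO controls; interference from pre-ATP fluorescence versus DMSO controls.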

[1] = MBHA with DNA substrate, assay interference calculated with Equation 2
[2] = assay interference calculated with Equation 2 (fluorescence vs DMSO-only controls before ATP)

T1 sequence (Q9WMX2 1192-1657): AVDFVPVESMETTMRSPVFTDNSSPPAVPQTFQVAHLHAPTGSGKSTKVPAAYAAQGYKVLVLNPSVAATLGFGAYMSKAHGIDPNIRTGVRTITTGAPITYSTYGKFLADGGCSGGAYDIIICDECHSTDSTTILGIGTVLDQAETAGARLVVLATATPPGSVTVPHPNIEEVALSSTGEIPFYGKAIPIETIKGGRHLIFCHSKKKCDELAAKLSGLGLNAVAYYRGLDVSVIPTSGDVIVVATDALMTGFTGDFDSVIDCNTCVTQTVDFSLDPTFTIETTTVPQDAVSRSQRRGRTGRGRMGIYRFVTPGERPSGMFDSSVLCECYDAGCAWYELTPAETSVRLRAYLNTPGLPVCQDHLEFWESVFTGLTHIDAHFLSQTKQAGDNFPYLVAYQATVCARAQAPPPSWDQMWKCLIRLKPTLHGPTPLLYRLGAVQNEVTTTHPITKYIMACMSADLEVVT

SMILES	Int.* (Ratio) (Interference) [1]	Inh. (%) (Inhibition) (MBHA with DNA substrate)	Inh. (%) (Inhibition) (MBHA with a DNA substrate)	Int.* (Ratio) (Interference) [2]
COc1ccc(NC2=NCCO2)c2c1CCCC2 [Compound 663996]	1.08 Ratio	−2.7%	–	–
O=[N+]([O-])c1ccc2c(c1)/C(=N/N=C1c3ccccc3Cc3ccccc31)c1cc([N+](=O)[O-])cc([N+](=O)[O-])c1-2 [Compound 658139]	1.06 Ratio	−14.6%	–	–
CCOC(=O)/C=C/c1c(C)[nH]c(=O)[nH]c1=O [Compound 159935]	0.89 Ratio	−0.8%	–	–
O=[N+]([O-])c1cc(C(F)(F)F)cc2n[se]nc12 [Compound 627371]	0.92 Ratio	−10.1%	–	–
O=C1Nc2ccc(Br)cc2/C1=C\C(=O)c1ccccc1 [Compound 294961]	–	–	−28.1%	1.06 Ratio
O=C(CC1(O)C(=O)Nc2c(Cl)ccc(Cl)c21)c1ccc(Cl)cc1Cl (centres unmarked) [Compound 635436]	0.89 Ratio	15.6%	–	–
CCOc1cccc(/C=N/N=C2\C(=O)Nc3c(Cl)cc(Cl)cc32)c1O [Compound 329277]	1.08 Ratio	−11.4%	–	–
COC(=O)C1c2cc3c(c(O)c2C(OC2OC(C)C(OC)C(C)(OC)C2OC)CC1(C)O)C(=O)c1c(O)cc2c(c1C3=O)OC1OC2(C)C(O)C(N(C)C)C1O (centres unmarked) [Compound 70845]	0.59 Ratio	84.4%	–	–
CC(C)C1(Cl)CCC2C3(C)CCCC(C)(C(=O)O)C3CC(Cl)C2(Cl)C1Cl (centres unmarked) [Compound 2979]	1.00 Ratio	−12.5%	–	–
Cc1ccc(C)c2c(N=Nc3ccccc3[N+](=O)[O-])c(O)[nH]c12 [Compound 118732]	0.89 Ratio	14.2%	–	–
COC(=O)c1ccccc1NC(=O)C(=O)CC(=O)c1ccccc1NC1=CC(=O)C(=O)c2ccccc21 [Compound 641240]	0.88 Ratio	−14.8%	–	–
COc1ccc(CCN(C)CCCC(C#N)(c2ccc(OC)c(OC)c2)C(C)C)cc1OC.Cl (centres unmarked) [Compound 657799]	0.98 Ratio	5.8%	–	–
CCOC(=O)[C@H](CC(C)C)NC(=O)C(Cc1ccc(N(CCCl)CCCl)cc1)NC(C)=O (some centres unmarked) [Compound 167780]	1.00 Ratio	22.8%	–	–
CCN(CC)CCNC(=O)c1nn(-c2ccc(Cl)cc2)c2c1CCc1cc(OC)ccc1-2 [Compound 288010]	1.01 Ratio	28.3%	–	–
Nc1ncnc2c1nnn2[C@@H]1O[C@H](CO)[C@@H](O)[C@H]1O [Compound 72961]	–	–	8.5%	0.98 Ratio
Cc1cc(NCCCCCCCNc2cc(C)nc3cc(N)ccc23)c2ccc(N)cc2n1 [Compound 273829]	0.26 Ratio	105.0%	–	–
C/C(=N\NC(=S)N1CCN(C2CCCCCC2)CC1)c1ccccn1 [Compound 376265]	1.02 Ratio	−13.7%	–	–
Cc1ccc(C)c(NC(=O)C(=O)C(C(=O)c2ccc3ccccc3c2)C2OC(=O)c3ccccc32)c1 (centres unmarked) [Compound 640985]	0.97 Ratio	−10.5%	–	–
Cc1ccc(S(=O)(=O)c2ccccc2[N+](=O)[O-])cc1 [Compound 627708]	1.03 Ratio	−11.4%	–	–
O=C1C(c2cnc3ccccc3n2)=C(O)c2ccccc21 [Compound 634224]	1.17 Ratio	2.7%	–	–
O=C1C(Br)=C(Br)C(=O)c2ccccc21 [Compound 618332]	1.03 Ratio	−18.7%	–	–
Cc1ccc(NC(=O)c2cccc([N+](=O)[O-])c2O)c([N+](=O)[O-])c1 [Compound 82025]	–	–	10.4%	0.94 Ratio
O=C(c1ccccc1)C(c1ccccc1)C1(O)C(=O)Nc2c(Cl)cc(Cl)cc21 (centres unmarked) [Compound 635312]	0.93 Ratio	−18.1%	–	–
CCOC(=O)c1ccc(N=Cc2ccc(N(CCC#N)CCC#N)cc2)cc1 [Compound 620279]	–	–	−45.1%	1.17 Ratio
O=S(=O)(O)c1cc(N=Nc2cc(S(=O)(=O)O)c3ccccc3c2O)ccc1/C=C/c1ccc(N=Nc2cc(S(=O)(=O)O)c3ccccc3c2O)cc1S(=O)(=O)O.[Na+] [Compound 34931]	0.90 Ratio	89.2%	–	–
